System: KRAS patient-derived spheroids with HUVEC/MSC, viability
Experiment: Anticancer human tumor 323965-272-R-J2-PDC patient-derived pancreatic carcinoma cell line growth inhibition [KRAS2]
Settings: for IC50: curve of first compound; for viability, T/C: stronger effect = lower value
How it was run: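 Combination screen of spheroid viability in tumor-cell co-cultures with endothelial (HUVEC) and mesenchymal stem cell stroma. Each agent was tested in half-log dilutions, topping at clinical Cmax or at 10 microM without a known Cmax.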

[1] = second compound 0.1 µM, first compound 0.0316 µM
[2] = second compound 0.1 µM, first compound 0.1 µM
[3] = second compound 0.1 µM, first compound 0.316 µM
[4] = second compound 0.1 µM, first compound 1 µM
[5] = second compound 0.1 µM, first compound 3.16 µM
[6] = second compound 0.316 µM, first compound 0.0316 µM
[7] = second compound 0.316 µM, first compound 0.1 µM
[8] = second compound 0.316 µM, first compound 0.316 µM
[9] = second compound 0.316 µM, first compound 1 µM
[10] = second compound 0.316 µM, first compound 3.16 µM
[11] = second compound 1 µM, first compound 0.0316 µM
[12] = second compound 1 µM, first compound 0.1 µM
[13] = second compound 1 µM, first compound 0.316 µM
[14] = second compound 1 µM, first compound 1 µM
[15] = second compound 1 µM, first compound 3.16 µM
[16] = second compound 3.16 µM, first compound 0.0316 µM
[17] = second compound 3.16 µM, first compound 0.1 µM
[18] = second compound 3.16 µM, first compound 0.316 µM
[19] = second compound 3.16 µM, first compound 1 µM
[20] = second compound 3.16 µM, first compound 3.16 µM
[21] = second compound 10 µM, first compound 0.0316 µM
[22] = second compound 10 µM, first compound 0.1 µM
[23] = second compound 10 µM, first compound 0.316 µM
[24] = second compound 10 µM, first compound 1 µM
[25] = second compound 10 µM, first compound 3.16 µM
[26] = second compound 0.1 µM, first compound 0.01 µM
[27] = second compound 0.316 µM, first compound 0.01 µM
[28] = second compound 1 µM, first compound 0.01 µM
[29] = second compound 3.16 µM, first compound 0.01 µM
[30] = second compound 10 µM, first compound 0.01 µM
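Also: spheroids exposed to agents for 7 days.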
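For viability, T/C in this document: 100% = DMSO vehicle control viability.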

CC(C)NCC(C(=O)N1CCN(c2ncnc3c2C(C)CC3O)CC1)c1ccc(Cl)cc1 (stereo not given) + CC1OCC2(CCN(c3cnc(Sc4ccnc(N)c4Cl)c(N)n3)CC2)C1N
IC50 (second compound 0.1 µM): 732 nM | IC50 (second compound 0.316 µM): 143 nM | IC50 (second compound 1 µM): < 31.6 nM | IC50 (second compound 3.16 µM): < 31.6 nM | IC50 (second compound 10 µM): < 31.6 nM | viability, T/C [1]: 84.6% | viability, T/C [2]: 72.5% | viability, T/C [3]: 57.6% | viability, T/C [4]: 44.9% | viability, T/C [5]: 42.1% | viability, T/C (second compound 0.1 µM, first compound 10 µM): 32.4% | viability, T/C [6]: 60.2% | viability, T/C [7]: 54.2% | viability, T/C [8]: 40.8% | viability, T/C [9]: 29% | viability, T/C [10]: 27.9% | viability, T/C (second compound 0.316 µM, first compound 10 µM): 23.6% | viability, T/C [11]: 38.5% | viability, T/C [12]: 35.3% | viability, T/C [13]: 21.5% | viability, T/C [14]: 12.7% | viability, T/C [15]: 12.6% | viability, T/C (second compound 1 µM, first compound 10 µM): 10.4% | viability, T/C [16]: 24.8% | viability, T/C [17]: 20.3% | viability, T/C [18]: 12.6% | viability, T/C [19]: 7.8% | viability, T/C [20]: 5.77% | viability, T/C (second compound 3.16 µM, first compound 10 µM): 3.98% | viability, T/C [21]: 20.8% | viability, T/C [22]: 19.1% | viability, T/C [23]: 11.5% | viability, T/C [24]: 6.63% | viability, T/C [25]: 4.73% | viability, T/C (second compound 10 µM, first compound 10 µM): 2.87%

CC1COCCN1c1cc(-c2ccnn2C)c2ccnc(-c3ccn[nH]3)c2n1 (stereo not given) + CC1OCC2(CCN(c3cnc(Sc4ccnc(N)c4Cl)c(N)n3)CC2)C1N
IC50 (second compound 0.1 µM): 15.3 nM | IC50 (second compound 0.316 µM): < 10 nM | IC50 (second compound 1 µM): < 10 nM | IC50 (second compound 3.16 µM): < 10 nM | IC50 (second compound 10 µM): < 10 nM | viability, T/C [26]: 60.7% | viability, T/C [1]: 32.2% | viability, T/C [2]: 17.7% | viability, T/C [3]: 15% | viability, T/C [4]: 13.5% | viability, T/C [5]: 12.9% | viability, T/C [27]: 43.1% | viability, T/C [6]: 23.2% | viability, T/C [7]: 12.3% | viability, T/C [8]: 10.7% | viability, T/C [9]: 10.5% | viability, T/C [10]: 9.88% | viability, T/C [28]: 35.1% | viability, T/C [11]: 13% | viability, T/C [12]: 7.36% | viability, T/C [13]: 6.29% | viability, T/C [14]: 5.53% | viability, T/C [15]: 3.23% | viability, T/C [29]: 13.3% | viability, T/C [16]: 7.07% | viability, T/C [17]: 4.72% | viability, T/C [18]: 4.25% | viability, T/C [19]: 2.21% | viability, T/C [20]: 2.21% | viability, T/C [30]: 7.99% | viability, T/C [21]: 5.12% | viability, T/C [22]: 4.05% | viability, T/C [23]: 3.27% | viability, T/C [24]: 1.9% | viability, T/C [25]: 1.31%

CCN1CCN(Cc2ccc(Nc3ncc(F)c(-c4cc(F)c5nc(C)n(C(C)C)c5c4)n3)nc2)CC1 + CC1OCC2(CCN(c3cnc(Sc4ccnc(N)c4Cl)c(N)n3)CC2)C1N
IC50 (second compound 0.1 µM): 25.2 nM | IC50 (second compound 0.316 µM): 14.6 nM | IC50 (second compound 1 µM): < 3.16 nM | IC50 (second compound 3.16 µM): < 3.16 nM | IC50 (second compound 10 µM): < 3.16 nM | viability, T/C (second compound 0.1 µM, first compound 0.00316 µM): 72.6% | viability, T/C [26]: 66.4% | viability, T/C [1]: 45.8% | viability, T/C [2]: 46.4% | viability, T/C [3]: 42% | viability, T/C [4]: 49.7% | viability, T/C (second compound 0.316 µM, first compound 0.00316 µM): 51.3% | viability, T/C [27]: 56.5% | viability, T/C [6]: 42.1% | viability, T/C [7]: 36.8% | viability, T/C [8]: 35.5% | viability, T/C [9]: 42.3% | viability, T/C (second compound 1 µM, first compound 0.00316 µM): 38.5% | viability, T/C [28]: 37.7% | viability, T/C [11]: 26.2% | viability, T/C [12]: 23.4% | viability, T/C [13]: 26.1% | viability, T/C [14]: 35.3% | viability, T/C (second compound 3.16 µM, first compound 0.00316 µM): 18.8% | viability, T/C [29]: 15.7% | viability, T/C [16]: 14.9% | viability, T/C [17]: 14.7% | viability, T/C [18]: 17.9% | viability, T/C [19]: 29.5% | viability, T/C (second compound 10 µM, first compound 0.00316 µM): 13.7% | viability, T/C [30]: 16.3% | viability, T/C [21]: 13.9% | viability, T/C [22]: 10.5% | viability, T/C [23]: 14.5% | viability, T/C [24]: 25.7%

Reference: PubChem BioAssay AID1963869 (Molecular Pharmacology Branch, DTP, NCI, 2024)
